According to PMC6099635, “New Records of Potent In-Vitro Antidiabetic Properties of Dalbergia tonkinensis Heartwood and the Bioactivity-Guided Isolation of Active Compounds” (Molecules : A Journal of Synthetic Chemistry and Natural …, 2018):

Legend:
Test in all cases: colorimetric pNPG hydrolysis, […] nm
Rat α-glucosidase = target: T1, Rat α-glucosidase; format: biochemical; conditions: pNPG substrate; 0.1 M potassium phosphate pH 7; 37 °C; 20 min pre-incubation, 60 min reaction
T1 construct: gene Si; Sigma Aldrich preparation

[1] = target: T2, Saccharomyces cerevisiae (yeast) α-glucosidase; format: biochemical; conditions: pNPG substrate; 0.1 M potassium phosphate pH 7; 37 °C; 20 min pre-incubation, 30 min reaction
T2 construct: gene MAL12

[2] = target: T3, Rice α-glucosidase (Type 4); format: biochemical, Oryza sativa; conditions: pNPG substrate; 0.1 M potassium phosphate pH 7; 37 °C; 20 min pre-incubation, 30 min reaction
T3 construct: gene Os06g0675700

C[C@H]1O[C@H](O[C@H]2[C@H](O)[C@@H](O)[C@@H](O[C@H]3[C@H](O)[C@@H](O)C(O)O[C@@H]3CO)O[C@@H]2CO)[C@H](O)[C@@H](O)[C@@H]1N[C@H]1C=C(CO)[C@@H](O)[C@H](O)[C@H]1O (stereo partly drawn) [acarbose, reference compound]
Inhibition Expressed as EC50 (mg/mL) / Acarbose (Rat α-glucosidase): 0.121 ± 0.001 mg/mL
Inhibition Expressed as EC50 (mg/mL) / Acarbose [1]: 1.321 ± 0.048 mg/mL
Inhibition Expressed as EC50 (mg/mL) / Acarbose [2]: 0.031 ± 0.005 mg/mL

COc1ccc(C2COc3cc(O)ccc3C2=O)c(OC)c1 (stereo not drawn) [compound 1, sativanone]
Inhibition Expressed as EC50 (mg/mL) / Sativanone (Rat α-glucosidase): 0.37 ± 0.022 mg/mL
Inhibition Expressed as EC50 (mg/mL) / Sativanone [1]: 0.23 ± 0.012 mg/mL
Inhibition Expressed as EC50 (mg/mL) / Sativanone [2]: 0.81 ± 0.023 mg/mL

COc1ccc(-c2coc3cc(O)ccc3c2=O)cc1 [compound 2, formononetin]
Inhibition Expressed as EC50 (mg/mL) / Formononetin (Rat α-glucosidase): 0.23 ± 0.037 mg/mL
Inhibition Expressed as EC50 (mg/mL) / Formononetin [1]: 0.06 ± 0.002 mg/mL
Inhibition Expressed as EC50 (mg/mL) / Formononetin [2]: 0.98 ± 0.029 mg/mL
